Experimental data as given in patent US20160264932A1, “METHOD FOR PREPARING CULTURE MEDIUM FOR CULTURING PLANT TISSUE, METHOD FOR CULTURING PLANT TISSUE, STERILIZING AGENT, MICROBICIDAL AGENT, AND CULTURE MEDIUM COMPOSITION FOR CULTURING PLANT TISSUE” (priority 2013, published 2016).

Assays:
Format in all cases: cell-based
[1] = system: external bacteria; assay: Occurrence rate of microbial contamination of liquid culture medium after sterilization (FIG. 14); settings: explants inoculated in a common room, no bacteria inoculated
Method: The contamination rate by external bacteria after sterilization of a liquid culture medium was investigated. In any cases, the result was obtained under the condition that the inoculation of explants was performed in a common room with no bacteria inoculated. […] The microbial contamination rate increased when any one of the following agents was omitted: SE-P, Nisin, Ox, Nata, Cap, Imp10 and Cl7.

[2] = system: plant bodies; assay: Influence of agent concentration on growth of plant (solid culture medium, FIG. 6); settings: 30 days
From the text: The influence of a change in the concentrations of the agents used for sterilizing the culture medium on the growth of plants was investigated. The culture condition in this experiment was as follows:
Culture medium components: solid culture medium dosed with Otsuka-A
Number of plant bodies: 10
Numerical values: average±standard deviation
Sterilizing method: one-time dosing mode
Inoculating method (Culturing method): the method shown in FIG. 4 was used, with SE-P2000Cl140/SE-P2000Cl140 as the first/second microbicidal liquids, respectively.
In FIG. 6, the “Autoclave (Conventional Method)” indicates comparative examples, in which an explant which had undergone a microbicidal treatment in an autoclave was placed in a liquid culture medium and cultured in a clean bench.

[3] = system: microbial colony formation (bacteria, filamentous fungi); assay: Microbial recontamination of sterilized solid culture medium after solidification (FIG. 8)
Method: A sterilized culture medium (Otsuka-A solid culture medium) was placed in 50 test tubes held in a tube stand and kept intact on a standard laboratory table (at temperatures of 14-24° C.), and the temporal change in the degree of microbial colony formation was investigated.

[4] = system: An (filamentous fungus, presumed to be Aspergillus niger complex); assay: Sterilizing effect of microbicidal liquids in the inoculating process (FIG. 9), An; settings: bacteria inoculated on potato explant, explant treated, 14 days
Method: (§1) An experiment was conducted to determine how the sterilizing effect after inoculation is related to the concentrations and combination of the agents used in the microbicidal liquid for explants and the microbicidal liquid for culture vessels. The experimental condition was as follows:
(§2) Solid culture medium: dosed with Otsuka-A
(§3) Sterilizing method: autoclave
(§4) Method of inoculation of bacteria: on culture medium surface [as for “B5” and “S3”, 50 μL per test tube of the bacterial suspension was dropped onto the surface of the culture medium; and as for “An”, 10 mg per test tube of either a conidial powder or a conidial powder diluted with a-starch to a predetermined dilution ratio was poured onto the culture medium]; or on explant [as for “B5” and “S3”, the explant was immersed in the bacterial suspension (whereby 10 μL per explant was attached); and as for “An”, the explant was coated with either a conidial powder or a conidial powder diluted with a-starch to a predetermined dilution ratio (whereby 5 mg per explant was attached)]

[5] = system: B5 strain, presumed to be Bacillus subtilis; assay: Sterilizing effect of microbicidal liquids in the inoculating process (FIG. 9), B5; settings: inoculated on potato explant; explant treated with microbicidal liquid (Cap or Nata 10000 mg/L or higher)
Method: as §1, §2, §3, §4

[6] = system: S3 strain, presumed to be Serratia sp.; assay: Sterilizing effect of microbicidal liquids in the inoculating process (FIG. 9), S3; settings: inoculated on potato explant; explant treated with microbicidal liquid (Ox 200 mg/L or higher; Nata 10000 mg/L or higher)
Method: as §1, §2, §3, §4

Row | Compound | need of adding the agent to prevent microbial contamination [1] | concentration that did not negatively affect growth [2] [µg/mL] | open storage of the culture ([3]; Natamycin in addition to P1670, Nisaplin and wettable powder STARNER, no ZonenC) | newly invasion of filamentous fungi ([3]; used in addition to P1670, Nisaplin and wettable powder STARNER) | concentration in microbicidal liquid preventing An colony formation to some extent [4] [mg/L] | formation of B5 colonies [5] | formation of S3 colonies [6] | microbial contamination rate when the agent was omitted [1]
1 | Egg-white lysozyme | not necessary | – | – | – | – | – | – | –
2 | C[C@@H]1C/C=C/C=C/C=C/C=C/[C@H](O[C@@H]2O[C@H](C)[C@@H](O)[C@H](N)[C@@H]2O)C[C@@H]2O[C@](O)(C[C@@H](O)C[C@H]3O[C@@H]3/C=C/C(=O)O1)C[C@H](O)[C@H]2C(=O)O [Natamycin] | – | ≤ 100 | open storage of the culture was not possible | dramatically decreased | ≥ 10000 | could not prevent | could not prevent | increased
